Common to all, as to format: cell-based
Series [1] relates to Staphylococcus aureus ATCC 25923. In words: Antibacterial microdilution assay (resazurin), S. aureus. As to conditions: 6 h at 37 °C. The method, then:
(§1) Lung carcinoma (A549), colorectal adenocarcinoma (DLD-1) and normal skin fibroblast (WS1) human cell lines were obtained from the American Type Culture Collection (ATCC). All cell lines were cultured in minimum essential medium containing Earle’s salts and L-glutamine (Mediatech Cellgro, VA, USA), to which were added 10% fetal bovine serum (Hyclone), vitamins (1X), penicillin (100 I.U./mL) and streptomycin (100 µg/mL), essential amino acids (1X) and sodium pyruvate (1X) (Mediatech Cellgro, VA). Cells were kept at 37 °C in a humidified environment containing 5% CO2. Antibacterial activity was tested on Escherichia coli ATCC 25922 and Staphylococcus aureus ATCC 25923E.
(§2) Antibacterial activity was evaluated using the microdilution method described by Banfi et al. with some modifications. Exponentially growing bacteria were plated in 96-well flat bottom microplates (BD Flacon) at a density of 5 × 10^3 gram-negative E. coli (ATCC 25922) or 40 × 10^3 gram-positive S. aureus (ATCC 25923) per well in 100 μL nutrient broth (Difco). The concentration of ethanol in the culture medium was maintained at 0.25% (v/v) to avoid solvent toxicity. Thereafter, 50 μL of 4% resazurin was added to each well and the microplates were incubated for 6 h at 37 °C. Fluorescence was measured after 6 h with an automated 96-well Fluoroskan Ascent Fl™ plate reader (Labsystems) using 530 and 590 nm excitation and emission wavelengths.
(Dilution methods test growth across graded concentrations, often in twofold steps.)

Series [2] concerns Escherichia coli ATCC 25922. In words: Antibacterial microdilution assay (resazurin), E. coli. As to conditions: 6 h at 37 °C. Here is the method:
as §1, §2

The test system of series [3] is A549, human lung carcinoma cell line. In words: Cytotoxicity assay (Hoechst DNA assay), A549. As to conditions: for IC50: Homo sapiens, A549, concentration inhibiting 50% cell growth, 48 h, mean of three independent assays. Here is the method:
(§3) P. banksiana buds were extracted successively with hexanes, CH2Cl2 and MeOH. After solvent evaporation, each extract was investigated for in vitro cytotoxic and antibacterial activities. Cytotoxic activity evaluations were carried out on lung cancer (A549), colorectal cancer (DLD-1) and normal skin fibroblasts (WS1) human cell lines using the Hoechst assay. Antibacterial activity was evaluated against Escherichia coli and Staphylococcus aureus. […] Therefore, following studies were focused on the CH2Cl2 extract that was further separated over column chromatography on silica gel to afford eleven fractions (A–K). All fractions activities were tested against both cancer cell lines and bacterial strains. […] In a next step, fractions F, G, H and K were separated by a combination of chromatographic procedures to afford the three new compounds 1–3 together with 12 known compounds. The structures of the new compounds were determined as follows and the known products were identified by comparison of their spectroscopic data with values found in the literature.
as §1
(§4) Exponentially growing cells were plated on 96-well microplates (BD Falcon) at a density of 5 × 10^3 cells per well in 100 μL of culture medium (DMEM with 10% SVF) and were allowed to adhere for 24 h before treatment. Increasing concentrations of each compound in MeOH or DMSO were then added (100 μL per well) and cells were incubated for 48 h. The final concentration of MeOH or DMSO in the culture medium was maintained at 0.25% (v/v) to avoid solvent toxicity. Microplates were then emptied and stored at −80 °C for 24 h. In a next step, 100 μL of SDS (0.01%) were added and the microplates were incubated at room temperature during 3 h before being put back to the cold. After 24 h, cells were prepared for cellular DNA assay with 100 μL of Hoechst dye 33342. Measurements were performed on the same labsystems at 365 and 460 nm wavelengths. Survival percentage was defined as the fluorescene in experimental wells compared to the control wells after subtraction of the blank values. Etoposide was used as positive control. Each experiment was carried out two times in triplicata. IC50 results were expressed as averaged values and the corresponding standard deviations were computed.

Series [4] concerns DLD-1, human colorectal adenocarcinoma cell line. In words: Cytotoxicity assay (Hoechst DNA assay), DLD-1. As to conditions: concentration inhibiting 50% cell growth, 48 h, mean of three independent assays; for IC50: Homo sapiens, DLD-1. Here is the method: as §3, §1, §4
Series [5] has as its system WS1, human normal skin fibroblasts. In words: Cytotoxicity assay (Hoechst DNA assay), WS1. Conditions: Skin fibroblast, concentration inhibiting 50% cell growth, 48 h, mean of three independent assays. The method, then: as §3, §1
as §4, with “Each experiment was carried out two times in triplicata.” left out

Molecules are shown by their SMILES.

Usually IC50 stands for the point on the concentration scale where inhibition reaches its midpoint. In the case of `O=C(N[C@H](CO)[C@H](O)c1ccc([N+](=O)[O-])cc1)C(Cl)Cl` [Chloramphenicol, reference compound], the IC50 in series [1] (ATCC25923, extracts and fractions) is above 1.6 µg/mL; in series [1] (ATCC25923, isolated compounds), above 5 µM; in series [2] (ATCC25922, extracts and fractions), 0.12 ± 0.02 µg/mL; in series [2] (ATCC25922, isolated compounds) it was 0.37 ± 0.06 µM.

On to `C=C(C)c1ccc2c(c1)[C@H](O)CC1[C@](C)(C(=O)O)CCC[C@]21C` (stereo partly drawn) [Compound 1, 7α-hydroxyabieta-8,11,13,15-tetraen-18-oic acid], for which the IC50 is above 100 µM in series [1] (ATCC25923, isolated compounds); above 100 µM in series [3] (isolated compounds); above 100 µM in series [4] (isolated compounds); above 100 µM in series [2] (ATCC25922, isolated compounds); above 100 µM in series [5] (isolated compounds).

As for `CC(C)(O)c1ccc2c(c1)C(O)CC1C(C)(CO)CCCC21C` (stereo not drawn) [Compound 2, 7β,15,18-trihydroxyabieta-8,11,13-triene], the IC50 in series [1] (ATCC25923, isolated compounds) is above 100 µM; in series [3] (isolated compounds) it was above 100 µM; in series [4] (isolated compounds), above 100 µM; in series [2] (ATCC25922, isolated compounds) it was above 100 µM; in series [5] (isolated compounds), above 100 µM.

In the case of `C[C@@]1(CO)CCC[C@]2(C)c3ccc(O)cc3CCC12` (stereo partly shown) [Compound 3], the IC50 is above 100 µM in series [1] (ATCC25923, isolated compounds); above 100 µM in series [3] (isolated compounds); above 100 µM in series [4] (isolated compounds); above 100 µM in series [2] (ATCC25922, isolated compounds); above 100 µM in series [5] (isolated compounds).

Consider `CC(C)(O)c1ccc2c(c1)[C@H](O)CC1[C@](C)(C=O)CCC[C@]21C` (stereo partly drawn) [Compound 4, 7α,15-dihydroxyabieta-8,11,13-trien-18-al], for which the IC50 in series [1] (ATCC25923, isolated compounds) was above 100 µM; in series [3] (isolated compounds), above 100 µM; in series [4] (isolated compounds), above 100 µM; in series [2] (ATCC25922, isolated compounds), above 100 µM; in series [5] (isolated compounds), above 100 µM.

On to `CC(C)(O)c1ccc2c(c1)[C@H](O)CC1[C@](C)(C(=O)O)CCC[C@]21C` (stereo partly drawn) [Compound 5, 7α,15-dihydroxydehydroabietic acid], for which the IC50 in series [1] (ATCC25923, isolated compounds) is above 100 µM; in series [3] (isolated compounds) it was above 100 µM; in series [4] (isolated compounds), above 100 µM; in series [2] (ATCC25922, isolated compounds) it was above 100 µM; in series [5] (isolated compounds) it was above 100 µM.

Consider `CC(C)(O)c1ccc2c(c1)[C@@H](O)CC1[C@](C)(C(=O)O)CCC[C@]21C` (stereo partly drawn) [Compound 6, 7β,15-dihydroxydehydroabietic acid], for which the 50% inhibitory concentration (IC50) in series [1] (ATCC25923, isolated compounds) was above 100 µM; in series [3] (isolated compounds), above 100 µM; in series [4] (isolated compounds), above 100 µM; in series [2] (ATCC25922, isolated compounds), above 100 µM; in series [5] (isolated compounds), above 100 µM.

With `CC(C)(O)c1ccc2c(c1)CC[C@H]1[C@](C)(C(=O)O)CCC[C@]21C` [Compound 7, 15-hydroxydehydroabietic acid], the IC50 was above 100 µM in series [1] (ATCC25923, isolated compounds); 98 ± 2 µM in series [3] (isolated compounds); above 100 µM in series [4] (isolated compounds); above 100 µM in series [2] (ATCC25922, isolated compounds); above 100 µM in series [5] (isolated compounds).

`CC(C)c1ccc2c(c1)[C@H](O)CC1[C@](C)(O)CCC[C@]21C` (stereo partly drawn) [Compound 8, 18-nor-abieta-8,11,13-triene-4,7α-diol]: the IC50 in series [1] (ATCC25923, isolated compounds) was above 100 µM; in series [3] (isolated compounds), 63 ± 7 µM; in series [4] (isolated compounds), 91 ± 9 µM; in series [2] (ATCC25922, isolated compounds) it was above 100 µM; in series [5] (isolated compounds), above 100 µM.

`CC(C)c1ccc2c(c1)[C@@H](O)CC1[C@](C)(O)CCC[C@]21C` (stereo partly drawn) [Compound 9, 18-nor-abieta-8,11,13-triene-4,7β-diol]: the IC50 is above 100 µM in series [1] (ATCC25923, isolated compounds); above 100 µM in series [3] (isolated compounds); above 100 µM in series [4] (isolated compounds); above 100 µM in series [2] (ATCC25922, isolated compounds); above 100 µM in series [5] (isolated compounds).

`CC(C)c1ccc2c(c1)[C@H](O)CC1[C@](C)(C(=O)O)CCC[C@]21C` (stereo partly drawn) [Compound 10, 7α-hydroxydehydroabietic acid]: the IC50 in series [1] (ATCC25923, isolated compounds) is above 100 µM; in series [3] (isolated compounds), above 100 µM; in series [4] (isolated compounds), above 100 µM; in series [2] (ATCC25922, isolated compounds), above 100 µM; in series [5] (isolated compounds), above 100 µM.

As to `CC(C)c1ccc2c(c1)[C@@H](O)CC1[C@](C)(C(=O)O)CCC[C@]21C` (stereo partly drawn) [Compound 11, 7β-hydroxydehydroabietic acid], the IC50 in series [1] (ATCC25923, isolated compounds) was above 100 µM; in series [3] (isolated compounds), above 100 µM; in series [4] (isolated compounds), above 100 µM; in series [2] (ATCC25922, isolated compounds), above 100 µM; in series [5] (isolated compounds) it was above 100 µM.

Regarding `CC(C)c1ccc2c(c1)C(=O)C[C@H]1[C@](C)(CO)CCC[C@]21C` [Compound 12, 7-oxodehydroabietinol], the IC50 in series [1] (ATCC25923, isolated compounds) is above 100 µM; in series [3] (isolated compounds) it was 34 ± 4 µM; in series [4] (isolated compounds), 47 ± 9 µM; in series [2] (ATCC25922, isolated compounds), above 100 µM; in series [5] (isolated compounds), above 100 µM. In series [3] (isolated compounds), the “cytotoxicity against lung carcinoma A549 (in words)” value is “moderate cytotoxicity”.

Turning to `CC(C)(O)c1ccc2c(c1)C(=O)C[C@H]1[C@](C)(O)CCC[C@]21C` [Compound 13, 18-nor-4,15-dihydroxyabieta-8,11,13-trien-7-one], the IC50 in series [1] (ATCC25923, isolated compounds) is above 100 µM; in series [3] (isolated compounds), 46 ± 3 µM; in series [4] (isolated compounds), above 100 µM; in series [2] (ATCC25922, isolated compounds), above 100 µM; in series [5] (isolated compounds), above 100 µM. In series [3] (isolated compounds), the “cytotoxicity against lung carcinoma A549 (in words)” value is listed as “moderate cytotoxicity”. The “IC50 DLD-1” value in series [4] (isolated compounds) is recorded as “not to DLD-1”.

Consider `CC(C)(O)c1ccc2c(c1)C(=O)CC1[C@](C)(CO)CCC[C@]21C` (stereo partly shown) [Compound 14, 15,18-dihydroxyabieta-8,11,13-trien-7-one], for which the IC50 in series [1] (ATCC25923, isolated compounds) was above 100 µM; in series [3] (isolated compounds), above 100 µM; in series [4] (isolated compounds), above 100 µM; in series [2] (ATCC25922, isolated compounds), above 100 µM; in series [5] (isolated compounds), above 100 µM.

`CC(C)(O)c1ccc2c(c1)C(=O)CC1[C@](C)(C(=O)O)CCC[C@]21C` (stereo partly shown) [Compound 15, 15-hydroxy-7-oxo-abieta-8,11,13-trien-18-oic acid]: the IC50 in series [1] (ATCC25923, isolated compounds) was above 100 µM; in series [3] (isolated compounds), above 100 µM; in series [4] (isolated compounds), above 100 µM; in series [2] (ATCC25922, isolated compounds), above 100 µM; in series [5] (isolated compounds), above 100 µM.

`COc1cc([C@@H]2c3cc4c(cc3[C@@H](O[C@@H]3O[C@@H]5CO[C@@H](C)O[C@H]5[C@H](O)[C@H]3O)[C@H]3COC(=O)[C@H]23)OCO4)cc(OC)c1O` [Etoposide, reference compound]: the IC50 stood at 0.4 ± 0.2 µg/mL in series [3] (extracts and fractions); 0.7 ± 0.3 µM in series [3] (isolated compounds); 1.7 ± 0.3 µg/mL in series [4] (extracts and fractions); 2.9 ± 0.5 µM in series [4] (isolated compounds); 5.9 ± 0.6 µg/mL in series [5] (extracts and fractions); 10 ± 2 µM in series [5] (isolated compounds).
